From patent US20260053861A1, “CELL COMPOSITIONS AND METHODS OF USING THE SAME” (THE REGENTS OF THE UNIVERSITY OF CALIFORNIA, priority 2022, published 2026) come the findings set out here.

Each structure is given as a SMILES string. Counter-ions that a name gives are not always drawn. Residues, ends and D or L forms follow the SMILES beside them.

The first experiment concerns hPSC-SCs.
Details: not given
The compound `NCCCCCC(=O)O` [Aminocaproic acid] came in with a z.score.t of −0.4749.

As to `CN(C)CCC=C1c2ccccc2CCc2ccccc21.Cl` [Amitryptiline hydrochloride], the z.score.t is −0.7142.

Compound `CCCc1ncc(C[n+]2ccccc2C)c(N)n1` [Amprolium hydrochloride] showed a z.score.t of −1.615.

`c1cncc([C@@H]2CCCCN2)c1` [Anabasine]: the z.score.t is −0.1239.

`C[C@]12CC[C@@H](O)C[C@@H]1CC[C@@H]1[C@@H]2CC[C@]2(C)C(=O)CC[C@@H]12` [Androsterone] returned a z.score.t of −1.265.

Regarding `COc1ccc(C[C@H]2NC[C@H](O)[C@H]2OC(C)=O)cc1` [Anisomycin], the z.score.t is given as −2.056.

As for `Cc1cc(=O)n(-c2ccccc2)n1C` [Antipyrine], the z.score.t is −0.2131.

`COC(=O)C1=CCCN(C)C1` [Arecoline hydrobromide] showed a z.score.t of −0.7049.

On to `C=C1[C@@H]2CC[C@H]3[C@]4(C)C[C@H](O[C@@H]5O[C@H](CO)[C@@H](OS(=O)(=O)O)[C@H](OS(=O)(=O)O)[C@H]5OC(=O)CC(C)C)C[C@@H](C(=O)O)[C@H]4CC[C@]3(C2)[C@@H]1O` [Atractyloside potassium salt], for which the z.score.t was −0.7376.

`CN1[C@@H]2CC[C@H]1C[C@@H](OC(=O)C(CO)c1ccccc1)C2` (stereo partly shown) [Atropine sulfate monohydrate] gave a z.score.t of −0.9654.

The compound `CC1=CC(=O)C2=C(C)C[C@H](O)[C@@H]3[C@H](OC(=O)[C@H]3C)[C@H]12` [Austricine hydrate] registered a z.score.t of −0.411.

In turn, `OC(c1ccccc1)(c1ccccc1)C1CCNCC1` [Azacyclonol] gave a z.score.t of 0.5179.

Consider `Cc1n[nH]c(=O)[nH]c1=O` [Azathymine, 6], for which the z.score.t is given as −0.5337.

In the case of `CCC1(C)CC(=O)NC(=O)C1` [Bemegride], the z.score.t is given as 0.3241.

Consider `CC(C)(C)CC(C)(C)c1ccc(OCCOCC[N+](C)(C)Cc2ccccc2)cc1` [Benzethonium chloride], for which the z.score.t was −1.091.

The experiment is the same for the next values; noted with them: HTS viability of hPSC-SCs in the presence of 30 mM glucose; Prestwick library; Table S4.
In the case of `CN(C)c1nc(N(C)C)nc(N(C)C)n1` [Altretamine], the z.score.t was −0.7567.

For the compound `Nc1c(Br)cc(Br)cc1CN[C@H]1CC[C@H](O)CC1` [Ambroxol hydrochloride], the z.score.t stood at 0.837.

In the case of `Cc1c(N(C)C)c(=O)n(-c2ccccc2)n1C` [Amidopyrine], the z.score.t was −0.2278.

As for `NCC[C@H](O)C(=O)N[C@@H]1C[C@H](N)[C@@H](O[C@H]2O[C@H](CN)[C@@H](O)[C@H](O)[C@H]2O)[C@H](O)[C@H]1O[C@H]1O[C@H](CO)[C@@H](O)[C@H](N)[C@H]1O` [Amikacin hydrate], the z.score.t is on record as −0.4543.

As to `N=C(N)NC(=O)c1nc(Cl)c(N)nc1N` [Amiloride hydrochloride dihydrate], the z.score.t is on record as 0.07016.

Consider `Nc1ccc(C(=O)NCC(=O)O)cc1` [Aminohippuric acid], for which the z.score.t is given as 0.8825.

For the compound `Cn1c(=O)c2[nH]cnc2n(C)c1=O` [Aminophylline], the z.score.t is recorded as 1.208.

Take `c1ccc(CNc2ncnc3[nH]cnc23)cc1` [Aminopurine, 6-benzyl]: the z.score.t stood at 0.3206.

For the compound `CCCCc1oc2ccccc2c1C(=O)c1cc(I)c(OCCN(CC)CC)c(I)c1` [Amiodarone hydrochloride], the z.score.t was −1.609.

Take `CN(C)CCCO[C@@H]1[C@H]2OC(C)(C)O[C@H]2O[C@@H]1[C@H](O)CO` [Amiprilose hydrochloride]: the z.score.t was found to be 1.178.

With `CCN(CC)Cc1cc(Nc2ccnc3cc(Cl)ccc23)ccc1O` [Amodiaquin dihydrochloride dihydrate], the z.score.t was −1.767.

With `Clc1ccc2c(c1)C(N1CCNCC1)=Nc1ccccc1O2` [Amoxapine], the z.score.t was −0.09426.

In the case of `CC1(C)S[C@@H]2[C@H](NC(=O)[C@H](N)c3ccc(O)cc3)C(=O)N2[C@H]1C(=O)O` [Amoxicillin], the z.score.t amounted to 1.457.

Turning to `C[C@@H]1[C@H](O)[C@@H](C)/C=C/C=C/C=C/C=C/C=C/C=C/C=C/[C@H](O[C@@H]2O[C@H](C)[C@@H](O)[C@H](N)[C@@H]2O)C[C@@H]2O[C@](O)(C[C@@H](O)C[C@@H](O)[C@H](O)CC[C@@H](O)C[C@@H](O)CC(=O)O[C@H]1C)C[C@H](O)[C@H]2C(=O)O` [Amphotericin B], the z.score.t stood at 0.7312.

As for `CC1(C)S[C@@H]2[C@H](NC(=O)[C@H](N)c3ccccc3)C(=O)N2[C@H]1C(=O)O` [Ampicillin trihydrate], the z.score.t was 1.287.

`Cc1c(N)c(=O)n(-c2ccccc2)n1C` [Ampyrone]: the z.score.t is reported as 0.4205.

As for `Nc1cc(-c2ccncc2)c[nH]c1=O` [Amrinone], the z.score.t is −1.025.

`c1ccc(CN(CC2=NCCN2)c2ccccc2)cc1` [Antazoline hydrochloride]: the z.score.t is −0.004573.

As for `Cc1c(O)c(=O)n(-c2ccccc2)n1C` [Antipyrine, 4-hydroxy], the z.score.t was 0.04029.

As for `O=c1cc(-c2ccc(O)cc2)oc2cc(O)cc(O)c12` [Apigenin], the z.score.t was −0.2904.

`CN[C@@H]1[C@@H](O[C@H]2O[C@H](CO)[C@@H](N)[C@H](O)[C@H]2O)OC2C[C@@H](N)[C@@H](O[C@H]3[C@H](O)[C@@H](O)[C@H](N)C[C@@H]3N)OC2[C@@H]1O` (stereo partly shown) [Apramycin]: the z.score.t was 0.1828.

Take `OC[C@H]1O[C@@H](Oc2ccc(O)cc2)[C@H](O)[C@@H](O)[C@@H]1O` [Arbutin]: the z.score.t is −0.2611.

For the compound `NC(N)=NCCCCN=C(N)N` [Arcaine sulfate], the z.score.t is reported as −0.7567.

Turning to `C[C@@H]1CC[C@H]2[C@@H](C)C(=O)O[C@@H]3O[C@@]4(C)CC[C@@H]1[C@]32OO4` [Artemisinin], the z.score.t is listed as −0.5919.

As to `CCCNC(C)C(=O)Nc1c(C)csc1C(=O)OC` (stereo not shown) [Articaine hydrochloride], the z.score.t stood at 0.8481.

With `O=C1O[C@H]([C@@H](O)CO)C(O)=C1O` [Ascorbic acid], the z.score.t is listed as −0.7233.

With `COc1ccc(CCN2CCC(Nc3nc4ccccc4n3Cc3ccc(F)cc3)CC2)cc1` [Astemizole], the z.score.t is −1.866.

For the compound `O=C1C(O)=C([C@H]2CC[C@H](c3ccc(Cl)cc3)CC2)C(=O)c2ccccc21` [Atovaquone], the z.score.t was −1.62.

`COc1ccc(CC2c3cc(OC)c(OC)cc3CC[N+]2(C)CCC(=O)OCCCCCOC(=O)CC[N+]2(C)CCc3cc(OC)c(OC)cc3C2Cc2ccc(OC)c(OC)c2)cc1OC` (stereo not shown) [Atracurium besylate]: the z.score.t is 0.5041.

In the case of `Nc1ncn([C@@H]2O[C@H](CO)[C@@H](O)[C@H]2O)c(=O)n1` [Azacytidine-5], the z.score.t was −2.144.

For `Nc1nc(O)c2[nH]nnc2n1` [Azaguanine-8], the z.score.t is reported as −1.365.

For the compound `O=C(CCCN1CCN(c2ccccn2)CC1)c1ccc(F)cc1` [Azaperone], the z.score.t is listed as −0.9039.

Turning to `CCCC1C(=O)N2C(N(C)C)=Nc3ccc(C)cc3N2C1=O` (stereo not shown) [Azapropazone], the z.score.t was 1.176.

Turning to `Cn1cnc([N+](=O)[O-])c1Sc1ncnc2nc[nH]c12` [Azathioprine], the z.score.t was determined as 0.4486.

Regarding `CC1(C)S[C@@H]2[C@H](NC(=O)[C@H](NC(=O)N3CCNC3=O)c3ccccc3)C(=O)N2[C@H]1C(=O)O` [Azlocillin sodium salt], the z.score.t is 1.635.

On to `C[C@H]1[C@H](NC(=O)/C(=N\OC(C)(C)C(=O)O)c2csc(N)n2)C(=O)N1S(=O)(=O)O` [Aztreonam], for which the z.score.t came out at 1.36.

Turning to `CCOC(=O)OC(C)OC(=O)[C@@H]1N2C(=O)[C@@H](NC(=O)[C@H](N)c3ccccc3)[C@H]2SC1(C)C` (stereo partly shown) [Bacampicillin hydrochloride], the z.score.t is 0.3231.

`CC[C@H](C)[C@H](N)C1=N[C@H](C(=O)N[C@@H](CC(C)C)C(=O)N[C@H](CCC(=O)O)C(=O)N[C@H](C(=O)N[C@H]2CCCCNC(=O)[C@H](CC(N)=O)NC(=O)[C@@H](CC(=O)O)NC(=O)[C@H](Cc3cnc[nH]3)NC(=O)[C@@H](Cc3ccccc3)NC(=O)[C@H]([C@@H](C)CC)NC(=O)[C@@H](CCCN)NC2=O)[C@@H](C)CC)CS1` [Bacitracin] (HELM PEPTIDE1{[CC[C@H](C)[C@H](N)C1=N[C@H](C(=O)[*:2])CS1].L.[dE].I.K.[NCCC[C@@H](N[*:1])C(=O)[*:2]].I.[dF].H.[dD].N}$PEPTIDE1,PEPTIDE1,5:R3-11:R2$$$V2.0): the z.score.t turned out to be 1.163.

Regarding `O=C(O)CCNC(=O)c1ccc(/N=N/c2ccc(O)c(C(=O)O)c2)cc1` [Balsalazide Sodium], the z.score.t was 0.7914.

Turning to `CN(C)C(=O)Oc1cc(OC(=O)N(C)C)cc(C(O)CNC(C)(C)C)c1` (stereo not shown) [Bambuterol hydrochloride], the z.score.t was −0.5919.

For `CCC(=O)OCC(=O)[C@@]1(OC(=O)CC)[C@@H](C)C[C@H]2[C@@H]3CCC4=CC(=O)C=C[C@]4(C)[C@@]3(Cl)[C@@H](O)C[C@@]21C` [Beclomethasone dipropionate], the z.score.t is listed as −0.2136.

Regarding `NS(=O)(=O)c1cc2c(cc1C(F)(F)F)NC(Cc1ccccc1)NS2(=O)=O` (stereo not shown) [Bendroflumethiazide], the z.score.t is listed as −1.107.

With `CC(Cc1cccc(C(F)(F)F)c1)NCCOC(=O)c1ccccc1` (stereo not shown) [Benfluorex hydrochloride], the z.score.t came out at 1.095.

`C/C(=C(\CCOP(=O)(O)O)SC(=O)c1ccccc1)N(C=O)Cc1cnc(C)nc1N` [Benfotiamine]: the z.score.t is on record as −0.1239.

With `CCCCOc1cc(C(=O)OCCN(CC)CC)ccc1N` [Benoxinate hydrochloride], the z.score.t amounted to 0.05523.

As to `O=C(CCCN1CCC(n2c(O)nc3ccccc32)CC1)c1ccc(F)cc1` [Benperidol], the z.score.t was found to be 0.1556.

Turning to `NC(CO)C(=O)NNCc1ccc(O)c(O)c1O` (stereo not shown) [Benserazide hydrochloride], the z.score.t was −0.2359.

Take `NC(=NCc1ccccc1)NC(=O)c1nc(Cl)c(N)nc1N` [Benzamil hydrochloride]: the z.score.t is reported as −1.515.

Take `CC1(C)S[C@@H]2[C@H](NC(=O)Cc3ccccc3)C(=O)N2[C@H]1C(=O)O.CC1(C)S[C@@H]2[C@H](NC(=O)Cc3ccccc3)C(=O)N2[C@H]1C(=O)O.c1ccc(CNCCNCc2ccccc2)cc1` [Benzathine benzylpenicillin]: the z.score.t is recorded as −0.08998.
